Source: patent US20230203058A1, “MACROCYCLIC DIAMINE DERIVATIVES AS ENT INHIBITORS FOR THE TREATMENT OF CANCERS, AND COMBINATION THEREOF WITH ADENOSINE RECEPTOR ANTAGONISTS” (ITEOS BELGIUM SA, priority 2020, published 2023)

The compounds below were run against T1, human ENT1 (Homo sapiens, UniProt Q99808) (assay: ENT1 binding assay (competition with Sahenta-DY647 on JAR cells)). Details: competition with Sahenta-DY647 100 nM, 4° C.
T1 sequence (Q99808 1-456): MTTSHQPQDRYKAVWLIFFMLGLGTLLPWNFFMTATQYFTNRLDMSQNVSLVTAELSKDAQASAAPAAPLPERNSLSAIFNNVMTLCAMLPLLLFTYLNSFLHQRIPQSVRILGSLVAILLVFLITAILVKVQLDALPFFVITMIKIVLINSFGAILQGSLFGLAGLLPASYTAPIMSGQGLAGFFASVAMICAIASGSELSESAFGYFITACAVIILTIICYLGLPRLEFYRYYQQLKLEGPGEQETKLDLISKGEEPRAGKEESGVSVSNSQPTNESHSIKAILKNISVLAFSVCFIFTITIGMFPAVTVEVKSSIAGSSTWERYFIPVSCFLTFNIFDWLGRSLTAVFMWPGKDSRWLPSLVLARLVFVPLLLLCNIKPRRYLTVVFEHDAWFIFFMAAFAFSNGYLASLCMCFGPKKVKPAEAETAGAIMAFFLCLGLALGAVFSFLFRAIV
Parameters: JAR cells expressing ENT1 were bought from ATCC® (HTB-144TM); host or cells: JAR cells (human choriocarcinoma line; whole cells)
Experimental: The present assay aims at showing that the compounds of the present invention can bind to human ENT1. The principle of the assay is a competition between the compounds of this invention and Sahenta-DY647, an ENT1 inhibitor that emits fluorescence (Ex = 630 nm, Em = 670 nm). By measuring the fluorescence at the end of the assay we could assess the binding potency of the compounds of the present invention.
JAR cells expressing ENT1 were bought from ATCC® (HTB-144TM). Cells were cultured in RPMI 1640 medium (LONZA®, #BE12-702F/U1) supplemented with 10% FBS (GIBCO®, #10270-106), 10 mM Hepes (LONZA®, #BE17-737E), 1 mM Sodium Pyruvate (LONZA®, #BE13-115E) and 2% Penicillin/Streptomycin (LONZA®, #DE17-603E) at 37° C. and 5% CO2. The assay was conducted on the following buffer: HBSS (LONZA®, #LO-527F) supplemented with 10 mM Hepes (LONZA®, #BE17-737E) and 0.1% BSA (Miltenyi®, #130-091-376) on the day of the assay. JAR cells were resuspended in the described buffer. Compounds of the present invention and Sahenta-DY647 were diluted 200X in the described buffer.
A total of 50000 cells were pre-incubated for 30 min at 4° C. with the compounds of the present invention before adding the corresponded IC90 of Sahenta-DY647 (100 nM) and incubate once more for 30 min at 4° C. The total volume of the reaction was 100 µL (50 µL of cells, 25 µL of the compounds of the present invention and 25 µL of Sahenta-DY647) in a 96 well plate, U-bottom (Greiner®, #650-180). The plates were washed 2X by centrifugation (4 min, 400 rcf at 4° C.) in the same buffer. Cells were resuspended in 70 µL of the buffer and 50 µL was transferred to a Black 384 Optiplate (PerkinElmer®, #6007279). Fluorescence (Ex = 630 nm, Em = 670 nm) was acquired on a Spectramax i3x (Molecular Devices®).

IC50 | Structure (SMILES)
> 500 nM | COc1cc2cc(c1OC)OCCCC(O/N=C/c1ccccc1)CCN1CCCN(CCCNC2=O)CC1 (stereo not drawn) [Compound 114, (E)-benzaldehyde O-(74,75-dimethoxy-6-oxo-8-oxa-5-aza-1(1,4)-diazepana-7(1,3)-benzenacyclotetradecaphane-12-yl) oxime]
20 to 500 nM | COc1cc2cc(c1OC)OCCCC(OC(=O)c1ccc(OC(F)(F)F)cc1)CCN1CCCN(CCCOC2=O)CC1 (stereo not drawn) [Compound 30, 74,75-dimethoxy-6-oxo-5,8-dioxa-1(1,4)-diazepana-7(1,3)-benzenacyclotetradecaphane-12-yl 4-(trifluoromethoxy)benzoate]
> 500 nM | COc1cc2cc(c1OC)OCCC[C@H](O)CCN1CCCN(CCCOC2=O)CC1 [Compound 40, (12S)-12-hydroxy-74,75-dimethoxy-5,8-dioxa-1(1,4)-diazepana-7(1,3)-benzenacyclotetradecaphan-6-one]
20 to 500 nM | COc1cc2cc(c1OC)OCCCC(OC(=O)c1cc(Cl)cc(Cl)c1)CCN1CCCN(CCCOC2=O)CC1 (stereo not drawn) [Compound 76, 74,75-dimethoxy-6-oxo-5,8-dioxa-1(1,4)-diazepana-7(1,3)-benzenacyclotetradecaphane-12-yl 3,5-dichlorobenzoate]
1 to 20 nM | COc1cc2cc(c1OC)OCCCC(OC(=O)c1cccnc1)CCN1CCCN(CCCOC2=O)CC1 (stereo not drawn) [Compound 53, 74,75-dimethoxy-6-oxo-5,8-dioxa-1(1,4)-diazepana-7(1,3)-benzenacyclotetradecaphane-12-yl nicotinate]
1 to 20 nM | COc1cc2cc(c1OC)OCCCC(OC(=O)c1ccc3c(c1)CCC(=O)N3)CCN1CCCN(CCCOC2=O)CC1 (stereo not drawn) [Compound 74, 74,75-dimethoxy-6-oxo-5,8-dioxa-1(1,4)-diazepana-7(1,3)-benzenacyclotetradecaphane-12-yl 2-oxo-1,2,3,4-tetrahydroquinoline-6-carboxylate]
> 500 nM | O=C1NCCCN2CCCN(CC[C@H](OC(=O)c3ccccc3)CCCOc3cccc1c3)CC2 (stereo in doubt) [Compound 20, (12R)-6-oxo-8-oxa-5-aza-1(1,4)-diazepana-7(1,3)-benzenacyclotetradecaphane-12-yl benzoate]
> 500 nM | COc1cc(C(=O)O[C@H]2CCCn3cc4c(Cl)cc(cc4n3)C(=O)NCCCN3CCCN(CC2)CC3)cc(OC)c1OC [Compound 25, (11Z, 16E, 10S)-14-chloro-2-oxo-12 H-3-aza-1(6,2)-indazola-7(1,4)-diazepanacyclotridecaphane-10-yl 3,4,5-trimethoxybenzoate]
> 500 nM | COc1cc(C(=O)NC2CCCOc3cc(cc(OC)c3OC)C(=O)OCCCN3CCCN(CC2)CC3)cc(OC)c1OC (stereo not drawn) [Compound 3, N-(74,75-dimethoxy-6-oxo-5,8-dioxa-1(1,4)-diazepana-7(1,3)-benzenacyclotetradecaphane-12-yl)-3,4,5-trimethoxybenzamide]
1 to 20 nM | COc1cc2cc(c1OC)OCCCC(OC(=O)C1CNC(=O)C1)CCN1CCCN(CCCOC2=O)CC1 (stereo not drawn) [Compound 68, 74,75-dimethoxy-6-oxo-5,8-dioxa-1(1,4)-diazepana-7(1,3)-benzenacyclotetradecaphane-12-yl 5-oxopyrrolidine-3-carboxylate]

More lines, now with the values behind:

Structure (SMILES) | IC50
COc1cc(C(=O)O[C@@H]2CCCn3cc4c(Cl)cc(cc4n3)C(=O)NCCCN3CCCN(CC2)CC3)cc(OC)c1OC [Compound 26, (11Z, 16E, 10R)-14-chloro-2-oxo-12H-3-aza-1(6,2)-indazola-7(1,4)-diazepanacyclotridecaphane-10-yl 3,4,5-trimethoxybenzoate] | > 500 nM
COc1cc2cc(c1OC)OCCCC(OC(=O)c1ccc(O)cc1)CCN1CCCN(CCCOC2=O)CC1 (stereo not drawn) [Compound 41, 74,75-dimethoxy-6-oxo-5,8-dioxa-1(1,4)-diazepana-7(1,3)-benzenacyclotetradecaphane-12-yl 4-hydroxybenzoate] | 1 to 20 nM
COc1cc2cc(c1OC)OCCCC(n1cc(-c3ccccc3)nn1)CCN1CCCN(CCCOC2=O)CC1 (stereo not drawn) [Compound 108, 74,75-dimethoxy-12-(4-phenyl-1 H-1,2,3-triazol-1-yl)-5,8-dioxa-1(1,4)-diazepana-7(1,3)-benzenacyclotetradecaphan-6-one] | > 500 nM
COc1ccc(C(=O)OC2CCCOc3cc(cc(OC)c3OC)C(=O)OCCCN3CCCN(CC2)CC3)c(OC(F)(F)F)c1 (stereo not drawn) [Compound 51, 74,75-dimethoxy-6-oxo-5,8-dioxa-1(1,4)-diazepana-7(1,3)-benzenacyclotetradecaphane-12-yl 4-methoxy-2-(trifluoromethoxy)benzoate] | 20 to 500 nM
CCOc1cc(C(=O)OC2CCCOc3cc(cc(OC)c3OC)C(=O)OCCCN3CCCN(CC2)CC3)cc(OCC)c1OCC (stereo not drawn) [Compound 92, 74,75-dimethoxy-6-oxo-5,8-dioxa-1(1,4)-diazepana-7(1,3)-benzenacyclotetradecaphane-12-yl 3,4,5-triethoxybenzoate] | 1 to 20 nM
COc1cc2cc(c1OC)OCCCC(OC(=O)CCC(F)(F)F)CCN1CCCN(CCCOC2=O)CC1 (stereo not drawn) [Compound 62, 74,75-dimethoxy-6-oxo-5,8-dioxa-1(1,4)-diazepana-7(1,3)-benzenacyclotetradecaphane-12-yl 4,4,4-trifluorobutanoate] | 1 to 20 nM
COc1cc2cc(c1OC)OCCCC(OC(=O)c1ccc(Cl)c(Cl)c1)CCN1CCCN(CCCOC2=O)CC1 (stereo not drawn) [Compound 24, 74,75-dimethoxy-6-oxo-5,8-dioxa-1(1,4)-diazepana-7(1,3)-benzenacyclotetradecaphane-12-yl 3,4-dichlorobenzoate] | 20 to 500 nM
COc1cc2cc(c1OC)OCCCC(OC(=O)c1cccc(C(F)(F)F)c1)CCN1CCCN(CCCOC2=O)CC1 (stereo not drawn) [Compound 44, 74,75-dimethoxy-6-oxo-5,8-dioxa-1(1,4)-diazepana-7(1,3)-benzenacyclotetradecaphane-12-yl 3-(trifluoromethyl)benzoate] | 1 to 20 nM
COc1cc(C(=O)OC2CCCOc3cc(cc(Cl)c3C#N)C(=O)NCCCN3CCCN(CC2)CC3)cc(OC)c1OC (stereo not drawn) [Compound 123, 75-chloro-74-cyano-6-oxo-8-oxa-5-aza-1(1,4)-diazepana-7(1,3)-benzenacyclotetradecaphane-12-yl 3,4,5-trimethoxybenzoate] | 1 to 20 nM
COc1cc2cc(c1OC)OCCCC(OC(=O)c1cocn1)CCN1CCCN(CCCOC2=O)CC1 (stereo not drawn) [Compound 57, 74,75-dimethoxy-6-oxo-5,8-dioxa-1(1,4)-diazepana-7(1,3)-benzenacyclotetradecaphane-12-yl oxazole-4-carboxylate] | 1 to 20 nM
COc1cc2cc(c1OC)OCCCC(OC(=O)c1ccc(F)c(F)c1)CCN1CCCN(CCCOC2=O)CC1 (stereo not drawn) [Compound 85, 74,75-dimethoxy-6-oxo-5,8-dioxa-1(1,4)-diazepana-7(1,3)-benzenacyclotetradecaphane-12-yl 3,4-difluorobenzoate] | 1 to 20 nM
COc1cc(C(=O)O[C@@H]2CCCOc3cc(cc(OC)c3OC)C(=O)OCCCC3CCN(CC3)CC2)cc(OC)c1OC [Compound 34, (R)-74,75-dimethoxy-6-oxo-5,8-dioxa-1(4,1)-piperidina-7(1,3)-benzenacyclotetradecaphane-12-yl 3,4,5-trimethoxybenzoate] | 1 to 20 nM
COc1cc2cc(c1OC)OCCCC(OC(=O)CCN1C(=O)CCC1=O)CCN1CCCN(CCCOC2=O)CC1 (stereo not drawn) [Compound 110, 74,75-dimethoxy-6-oxo-5,8-dioxa-1(1,4)-diazepana-7(1,3)-benzenacyclotetradecaphane-12-yl 3-(2,5-dioxopyrrolidin-1-yl)propanoate] | 20 to 500 nM
COc1cc2cc(c1OC)OCCCC(OC(=O)c1ccc3c(c1)ncn3C)CCN1CCCN(CCCOC2=O)CC1 (stereo not drawn) [Compound 89, 74,75-dimethoxy-6-oxo-5,8-dioxa-1(1,4)-diazepana-7(1,3)-benzenacyclotetradecaphane-12-yl 1-methyl-1 H-benzo [d] imidazole-5-carboxylate] | 1 to 20 nM
